Patent US20100286215A1, “BIS-AROMATIC COMPOUNDS USEFUL IN THE TREATMENT OF INFLAMMATION” (BIS-AROMATIC COMPOUNDS USEFUL IN THE TREATMENT OF …, priority 2007, published 2010)

target: T1, Recombinant human LTC4 synthase (Homo sapiens, UniProt Q16873); assay: LTC4 synthase assay (conversion of LTA4 methyl ester to LTC4 methyl ester, HPLC); assay type: biochemical; settings: inhibitor concentration 10 μM
T1 construct: made in house; host or cells: Pichia pastoris ('Piccia pastoralis' [sic])
T1 sequence (Q16873 1-150): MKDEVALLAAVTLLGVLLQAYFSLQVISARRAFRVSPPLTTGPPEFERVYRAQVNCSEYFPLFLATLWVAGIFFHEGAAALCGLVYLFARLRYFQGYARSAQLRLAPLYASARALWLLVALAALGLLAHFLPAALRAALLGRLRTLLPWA
Experimental: In the assay LTC4 synthase catalyses the reaction where the substrate LTA4 methyl ester is converted to LTC4 methyl ester. Recombinant human LTC4 synthase is expressed in Piccia pastoralis and the purified enzyme is dissolved in 25 mM Tris-buffer pH 7.8 and stored at −20° C. The assay is performed in phosphate buffered saline (PBS) pH 7.4, supplemented with 5 mM glutathione (GSH). The reaction is terminated by addition of acetonitrile/MeOH/acetic acid (50/50/1). The assay is performed at rt in 96-well plates. Analysis of the formed LTC4 methyl ester is performed with reversed phase HPLC (Waters 2795 utilizing an Onyx Monolithic C18 column). The mobile phase consists of acetonitrile/MeOH/H2O (32.5/30/37.5) with 1% acetic acid pH adjusted with NH3 to pH 5.6, and absorbance measured at 280 nm with a Waters 2487 UV-detector.
The following is added chronologically to each well: • 1. 50 μl assay buffer, PBS with 5 mM GSH. • 2. 0.5 μl inhibitor in DMSO. • 3. 2 μl LTC4 synthase in PBS. The total protein concentration in this solution is 0.025 mg/ml. Incubation of the plate at room temperature for 10 minutes. • 4. 0.5 μl LTA4 methyl ester. Incubation of the plate at rt for 1 min. • 5. 50 μl stop solution. 80 μl of the incubation mixture is analysed with HPLC.

| SMILES | Percantage Inhibition at 10 μM (unless specified otherwise) [%] |
| --- | --- |
| O=C(c1ccc(Oc2ccc(Cl)cc2)c(C(=O)O)c1)c1ccc(Oc2ccc(Cl)cc2)c(C(=O)O)c1 [11:3, 5-{3-Carboxy-[4-(chlorophenoxy)]-benzoyl}-2-(4-chlorophenoxy)-benzoic acid] | 97 |

same assay, conditions: inhibitor concentration 10 μM; read-out: Percantage Inhibition at 10 μM (unless specified otherwise)

| inhibition at 10 µM [%] | SMILES |
| --- | --- |
| 97 | O=C(c1ccc(Nc2ccc(Cl)cc2)c(C(=O)O)c1)c1ccc(Nc2ccc(Cl)cc2)c(C(=O)O)c1 [11:1, 5-{3-Carboxy-[4-(4-chloro-phenylamino)]-benzoyl}-2-(4-chloro-phenylamino)-benzoic acid] |
| 71 | CN(c1ccc(Cl)cc1)c1ccc(C(=O)c2ccc(Nc3ccc(C(F)(F)F)cc3)c(-c3nnn[nH]3)c2)cc1 [10:3, {4-[(4-Chloro-phenyl)-methyl-amino]-phenyl}-[3-(1H-tetrazol-5-yl)-4-(4-trifluoromethyl-phenylamino)-phenyl]-methanone] |
| 90 | O=C(c1ccc(Nc2ccc(Cl)nc2)cc1)c1ccc(Nc2ccc(F)c(F)c2)c(C(=O)O)c1 [5:7, 5-[4-(6-Chloro-pyridin-3-ylamino)-benzoyl]-2-(3,4-difluoro-phenylamino)-benzoic acid] |
| 93 | O=C(c1ccc(Nc2ccc(F)c(F)c2)c(C(=O)O)c1)c1ccc(Nc2ccc(F)c(F)c2)c(C(=O)O)c1 [Example 1, 2-(3,4-difluorophenylamino)-5-((4-(3,4-difluorophenylamino)-3-carboxyphenylcarbonyl))benzoic acid] |
| 98 | O=C(c1ccc(NS(=O)(=O)c2ccc(Cl)c(Cl)c2)c(C(=O)O)c1)c1ccc(NS(=O)(=O)c2ccc(Cl)c(Cl)c2)c(C(=O)O)c1 [Example 5, 2-((3,4-dichlorophenyl)sulfonyl-amino)-5-(3-carboxy-4-(((3,4-dichlorophenyl)sulfonyl)amino)-benzoyl)benzoic acid] |
| 90 | CN(c1ccc(Cl)cc1)c1ccc(C(=O)c2ccc(Nc3cccc(C(F)(F)F)c3)c(C(=O)O)c2)cc1 [9:1, 5-{4-[(4-Chloro-phenyl)-methyl-amino]-benzoyl}-2-(3-trifluoromethyl-phenylamino)-benzoic acid] |
| 100 | CCOc1ccc(NC(=O)Nc2ccc(C(=O)c3ccc(Nc4ccc(F)c(F)c4)c(C(=O)O)c3)cc2)cc1 [5:2, 2-(3,4-Difluoro-phenylamino)-5-{4-[3-(4-ethoxy-phenyl)-ureido]-benzoyl}-benzoic acid] |
| 100 | O=C(Nc1ccc(C(=O)c2ccc(NC(=O)c3cccc4c3OC(F)(F)O4)c(C(=O)O)c2)cc1)c1cccc(Cl)c1 [7:6, 5-[4-(3-Chloro-benzoylamino)-benzoyl]-2-[(2,2-difluoro-benzo[1,3]dioxole-4-carbonyl)-amino]-benzoic acid] |
| 88 | O=C(Nc1ccc(C(=O)c2ccc(Oc3ccc(F)c(F)c3)c(C(=O)O)c2)cc1)c1cccc(Cl)c1 [8:4, 5-[4-(3-Chloro-benzoylamino)-benzoyl]-2-(3,4-difluoro-phenoxy)-benzoic acid] |
| 96 | CN(c1ccc(Cl)cc1)c1ccc(C(=O)c2ccc(Oc3cccc(Cl)c3)c(C(=O)O)c2)cc1 [6:2, 2-(3-Chloro-phenoxy)-5-{4-[(4-chloro-phenyl)-methyl-amino]-benzoyl}-benzoic acid] |
| 100 | O=C(c1ccc(Nc2ccc(Cl)cc2)cc1)c1ccc(Oc2ccc(F)c(F)c2)c(C(=O)O)c1 [8:3, 5-[4-(4-Chloro-phenylamino)-benzoyl]-2-(3,4-difluoro-phenoxy)-benzoic acid] |
| 97 | CN(c1ccc(Cl)cc1)c1ccc(C(=O)c2ccc(Oc3cccc4c3CCCC4)c(-c3nnn[nH]3)c2)cc1 [10:1, {4-[(4-Chloro-phenyl)-methyl-amino]-phenyl}-[4-(5,6,7,8-tetrahydro-naphthalen-1-yloxy)-3-(1H-tetrazol-5-yl)-phenyl]-methanone] |
| 82 | O=C(Nc1ccc(C(=O)c2ccc(NC(=O)c3cccc(Cl)c3O)c(C(=O)O)c2)cc1)c1cccc(Cl)c1 [7:7, 5-[4-(3-Chloro-benzoylamino)-benzoyl]-2-(3-chloro-2-hydroxy-benzoylamino)-benzoic acid] |
